Experimental data taken from patent US12310963B2, “Pyrazole derivatives and use thereof” (Tarapeutics Science Inc., priority 2019, dated 2025).

Assays:
[1] = test system: BaF3-tel-PDGFRα (stably expressing PDGFRα kinase); experiment: Growth of BaF3-tel-PDGFRα cells, Cell Titer-Glo, 72 h; assay type: cell-based, mouse
Text: (§1) In this example, mouse primary B cell BaF3 (purchased from ATCC, U.S.A.) was used. In addition, in this example, mouse BaF3-tel-PDGFRα (stably expressing PDGFRα kinase), mouse BaF3-tel-PDGFRβ (stably expressing PDGFRβ kinase), BaF3-P210 (stably expressing ABL kinase), BaF3-P210-T315I (stably expressing ABL-T315I kinase), BaF3-FL-BRAF-V600E (stably expressing BRAF-V600E kinase), BaF3-TEL-cKIT (stably expressing cKIT kinase), BaF3-TEL-VEGFR2 (stably expressing VEGFR2 kinase), BaF3-TEL-FGFR2 (stably expressing FGFR2 kinase) were also used. The above-mentioned cell trains were all constructed in our laboratory by the method as follows. The sequences of human BCR-ABL (P210 or P210/T315I mutated), full-length BRAF-V600E, cKIT, VEGFR2, FGFR2, PDGFRα, PDGFRβ kinase region were amplified respectively via PCR, and inserted respectively into a MSCV-Puro vector (purchased from Clontech) having a N-terminal TEL fragment and/or NPM fragment and/or TPR fragment, and stably transferred into mouse BaF3 cells by the retroviral method, and the growth factor IL-3 was removed. Eventually, cell lines which are transferred into proteins depending on PDGFRα, PDGFRβ were obtained.
In this example, solutions of the test compound at different concentrations (0.000508 μM, 0.00152 μM, 0.00457 μM, 0.0137 μM, 0.0411 μM, 0.123 μM, 0.370 μM, 1.11 μM, 3.33 μM, 10 μM) were added to the above cells. The cells were incubated for 72 hours.

[2] = test system: pulmonary arterial hypertension (PAH); experiment: Rat model of pulmonary arterial hypertension (PAH), monocrotaline-induced; assay type: in vivo; details: for mPAP, difference as compared with the vehicle group: p<0.001
Protocol: SCXK (SU) 2017-0001. These rats were fed with conventional pellet feeds (Jiangsu Xietong Bio. Co., Ltd.), and were raised in a clean animal room with 12h/12h light/dark cycle. The rats were fed with foods and drinking water on an ad libitum basis. The temperature was maintained at 20-26° C., and the relative humidity was 40-70%. 120 SD rats were divided into 24 cages with 5 rats per group. […] The animals were treated in strict accordance with animal ethics regulations throughout the experiment. According to the method described in “Pharmaceutical experimental animal models: Fabrication and application” and the Standard Operating Procedure for PAH Model Construction of Model Animal Center, rats were intraperitoneally injected with a solution of 1% monocrotaline (MCT, purchased from Sigma, U.S.A.) once at a dose of 35 mg/kg. On Day 7 after the first injection of MCT, MCT was injected again at a dose of 20 mg/kg. The rats in the normal control group were intraperitoneally injected with an equivalent amount of water as a blank solvent. The specific steps were as follows: After the rats in each of the cages were fasted for 8 hours, each of the rats was weighed and recorded for the basic body weight after fasting; based on the measured basic body weight for each of the rats, the amount of MCT required to be injected for each of the rats was calculated according to the modeling dose of 35 mg/kg; based on the amount of MCT required to be injected for each of the rats, the dose for injection of a 1% MCT solution was calculated; the rats were fixed in a holder and intraperitoneally injected with the 1% MCT solution at the calculated dose; the rats were returned to the cages for routine feeding after the injection. […] The blood gas analyzer was operated following the standard operation procedure. […] Each of the rats was administered by gavage once a day starting from the day of regrouping at Week 4. The rats in the negative control group were daily administered by gavage with an equal volume of methylcellulose as vehicle. The rats in each of the groups were administered by gavage for consecutive 4 weeks (i.e., 28 days). […] The rats were weighed after fasting overnight twice a week. The administration dosage was calculated based on the weighing results. […] After the rats were under anesthesia, the pulmonary arterial pressure and the right ventricular systolic pressure of rats were measured. […] The steps were as follows. A No. 3.5 umbilical vein catheter was connected to a system pressure transducer. A formulated solution of […] sodium (purchased from Sangon) was filled into the transducer and the catheter, and bubbles were discharged. The anesthetized rat was placed on a surgical anatomical plate that is adjustable in its temperature. The temperature of the plate was adjusted to be maintained at about 37° C. The rat was fixed in supine position. The neck skin was cut with scissors to the edge of the clavicle, followed by blunt dissection of subcutaneous tissues and muscles, exposing the right external jugular vein. The adipose tissue on the surface was removed with ophthalmic surgical scissors. The external jugular vein was ligated at the […] surgical thread, and a loose knot was made at the proximal end for reserve. The external jugular vein was gently lifted with ophthalmic tweezers and cut with ophthalmic scissors to make a “V” opening. The catheter was quickly inserted, and the loose knot at the proximal end was tightened slightly to prevent bleeding. […] The catheter was further inserted slowly forward, and entered into the pulmonary artery at about 5 cm. […] The blood was transferred into an anticoagulation tube, and loaded in a blood gas analyzer to determine the indexes of partial pressure of oxygen (pO2), partial pressure of carbon dioxide (pCO2) and blood oxygen saturation (SaO2) in the blood.

[3] = test system: BaF3-P210 (stably expressing ABL kinase; BCR-ABL P210); experiment: Growth of BaF3-P210 cells, Cell Titer-Glo, 72 h; assay type: cell-based, mouse
Text: as §1
In this example, solutions of the test compound at different concentrations (0.000508 μM, 0.00152 μM, 0.00457 μM, 0.0137 μM, 0.0411 μM, 0.123 μM, 0.370 μM, 1.11 μM, 3.33 μM, 10 μM) were added to the above cells. […]

[4] = 45 mg/kg by gavage, 28 days, P<0.001
[5] = high-dose group (45 mg/kg), P<0.001
[6] = medium-dose group (30 mg/kg), P<0.01

## Cc1ccc(NC(=O)c2cccc(C(F)(F)F)n2)cc1-n1cc(-c2cncc(N3CCN(C)CC3)c2)cn1 [Compound 1, N-(4-methyl-3-(4-(5-(4-methylpiperazin-1-yl)pyridin-3-yl)-1H-pyrazol-1-yl)phenyl)-6-(trifluoromethyl)picolinamide]
[1]
  GI50: 0.056 µM
[2]; 15 mg/kg by gavage, 28 days
  mPAP, difference as compared with the vehicle group: extremely significantly different
[2]; 30 mg/kg by gavage, 28 days
  RVSP, difference as compared with the groups of imatinib and bosentan: no significant difference
  mPAP, difference as compared with the groups of bosentan and imatinib: no significant difference
  mPAP, difference as compared with the vehicle group: extremely significantly different
[2]; 30 mg/kg by gavage, 28 days, P<0.001
  RVSP, difference as compared with the vehicle group: extremely significantly different
[2]; 45 mg/kg by gavage, 28 days
  RVI, difference as compared with the groups of imatinib and bosentan: no significant difference
  RVSP, difference as compared with the groups of imatinib and bosentan: no significant difference
  mPAP, difference as compared with the groups of bosentan and imatinib: no significant difference
  mPAP, difference as compared with the vehicle group: extremely significantly different
[2]; [4]
  RVI, difference as compared with the vehicle group: extremely significantly different
  RVSP, difference as compared with the vehicle group: extremely significantly different
[2]; [5]
  partial pressure of carbon dioxide (pCO2), difference as compared with the vehicle group: extremely significantly different
  partial pressure of oxygen (pO2), difference as compared with the vehicle group: extremely significantly different
[2]; high-dose group (45 mg/kg), p<0.05
  blood oxygen saturation (SaO2), difference as compared with the vehicle group: significantly different
[2]; high-dose group, 45 mg/kg by gavage, 28 days
  RVI decrease as compared with the negative control group: 29.6%
[2]; low-dose group, 15 mg/kg by gavage, 28 days
  RVI decrease as compared with the negative control group: 5.5%
[2]; [6]
  partial pressure of carbon dioxide (pCO2), difference as compared with the vehicle group: extremely significantly different
  partial pressure of oxygen (pO2), difference as compared with the vehicle group: extremely significantly different
[2]; medium-dose group, 30 mg/kg by gavage, 28 days
  RVI decrease as compared with the negative control group: 9.4%
[3]; BaF3-P210 cells, 72 hours
  GI50: > 10 µM
[3]; summary of Table 2
  inhibitory effect against ABL (in words): no inhibitory effect, or a relatively weak inhibitory effect
